In PMC9092428, “Towards identification of protein–protein interaction stabilizers via inhibitory peptide-fragment hybrids using templated fragment ligation” (RSC Chemical Biology, 2022):
Square brackets hold non-standard residues; d marks the D form. Peptide text beside a SMILES is read from it. * marks the point of attachment. 5FAM = O=C1OC2(c3ccc(O)cc3Oc3cc(O)ccc32)c2ccc(C(=O)*)cc21; pS = N[C@@H](COP(=O)(O)O)C(=O)O; Ahx = NCCCCCC(=O)O

Key:
Format in all cases: binding
14-3-3η [1] = biological target: T1, 14-3-3η (Homo sapiens, UniProt Q04917); test: Fluorescence anisotropy (FA) competition assay against tracer hDMX361–374^pSer367*; details: Fig. 2b experiment; hydrazide equilibrated with 5 eq. aldehyde, serially diluted; 50 nM hDMX361–374^pSer367*, 1 μM 14-3-3η, 50 mM NH4OAc, 10 mM aniline, 1 mM DTT, pH 6.5
T1 construct: full length proteins were concentrated by centrifugation; His tag (pProEx HTb vector) (N); made in house; host or cells: E. coli BL21(DE3)
T1 sequence (Q04917 1-246): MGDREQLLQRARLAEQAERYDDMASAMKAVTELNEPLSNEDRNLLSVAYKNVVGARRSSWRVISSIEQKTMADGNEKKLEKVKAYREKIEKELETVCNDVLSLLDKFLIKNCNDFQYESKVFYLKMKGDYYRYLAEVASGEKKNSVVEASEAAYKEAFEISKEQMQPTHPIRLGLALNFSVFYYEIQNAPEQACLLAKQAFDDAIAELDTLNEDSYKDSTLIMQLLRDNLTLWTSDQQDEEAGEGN
Protocol: A fluorescence anisotropy (FA) competition assay was subsequently carried out using conditions previously found suitable for acylhydrazone formation (pH 6.5, 50 mM NH4OAc, 10 mM aniline) with added DTT (1 mM) to supress disulfide formation. hDMX361–369^pSer367Gly-hydrazide was used to compete with a tracer peptide: hDMX361–374^pSer367* for binding to 14-3-3η (Fig S2, ESI ^†). […] Initial attempts to screen in cocktails, established the aldehydes had no affect on their own (Fig. S3, ESI ^†). We then performed an assay where each aldehyde was screened individually with hDMX361–369^pSer367Gly-hydrazide. A decrease in anisotropy can be attributed to a particular hydrazone product, avoiding the additional step of product identification e.g. by HRMS, and, combines the equilibration step for hydrazone formation with 14-3-3η screening (Fig. 2a). […] To confirm the single-concentration results, a competition assay was performed (Fig. 2b). hDMX361–369^pSer367Gly-hydrazide was equilibrated with 5 equivalents of each aldehyde (product formation confirmed by LC-MS, see Fig. S4, ESI ^†), and serially diluted against the tracer peptide (hDMX361–374^pSer367*) and 14-3-3η protein.
Fig. 2 Dynamic ligation screening based on hDMX361–369^pSer367Gly-hydrazide (a) Anisotropy values of individually screened hydrazones (relative to buffer, zero activity negative control in grey), hDMX361–374^pSer367 (blue) and hDMX361–369^pSer367Gly-hydrazide (red) as positive controls with hits (hDMX361–369^pSer367Gly-hydrazone-FC45 and hDMX361–369^pSer367Gly-hydrazone-SIG17) highlighted in orange boxes (10 μM acetylated hydrazide peptide mixed with 5 eq. of aldehyde, 1 μM 14-3-3η, 50 nM hDMX361–374^pSer367*, 50 mM NH4OAc, 10 mM aniline and 1 mM DTT) (b) competition FA curves for hydrazones taken forward as hits (50 nM hDMX361–374^pSer367*, 1 μM 14-3-3η in 50 mM NH4OAc, 10 mM aniline and 1 mM DTT).
Fig. 3 Dynamic ligation screening based on hDMX361–370^pSer367Gly-hydrazide (a) anisotropy values of individually screened hydrazones (relative to buffer, zero activity negative control in grey), hDMX361–374^pSer367 (blue) and hDMX361–370^pSer367Gly-hydrazide (red) as positive controls with hits highlighted in black boxes (10 μM acetylated hydrazide peptide mixed with 5 eq. of aldehyde, 1 μM 14-3-3η, 50 nM hDMX361–374^pSer367*, 50 mM NH4OAc, 10 mM aniline and 1 mM DTT) (b) representative competition FA curves for hydrazones taken forwards as hits (50 nM hDMX361–374^pSer367*, 1 μM 14-3-3η in 50 mM NH4OAc, 10 mM aniline and 1 mM DTT). […]
(§1) Screening was performed using fluorescence anisotropy competition assay, in 50 mM NH4Ac pH 6.5 buffer containing 10 mM aniline, 1 mM DTT. […]

14-3-3η [2] = biological target: T1, 14-3-3η; test: Dynamic ligation screen, FA competition at single concentration; details: 10 μM acetylated hydrazide peptide with 5 eq. aldehyde, 24 h room temperature, 1 μM 14-3-3η, 50 nM hDMX361–374^pSer367*, 50 mM NH4OAc, 10 mM aniline, 1 mM DTT; duplicates
Protocol: A fluorescence anisotropy (FA) competition assay was subsequently carried out using conditions previously found suitable for acylhydrazone formation (pH 6.5, 50 mM NH4OAc, 10 mM aniline) with added DTT (1 mM) to supress disulfide formation. hDMX361–369^pSer367Gly-hydrazide was used to compete with a tracer peptide: hDMX361–374^pSer367* for binding to 14-3-3η (Fig S2, ESI ^†). […] Initial attempts to screen in cocktails, established the aldehydes had no affect on their own (Fig. S3, ESI ^†). We then performed an assay where each aldehyde was screened individually with hDMX361–369^pSer367Gly-hydrazide. A decrease in anisotropy can be attributed to a particular hydrazone product, avoiding the additional step of product identification e.g. by HRMS, and, combines the equilibration step for hydrazone formation with 14-3-3η screening (Fig. 2a). […]
Figure S3. […] Aldehydes were assessed as […]
as §1
Screening was performed using 10 μM acetylated hydrazide peptide mixed with 5 eq. of aldehyde, 1 μM 14-3-3η,. […] After 24 hours, hDMX tracer peptide was added to a concentration of 50 nM to the experiment wells or equal amount of buffers was added to the blanks and the plate was read immediately. […]

14-3-3η [3] = biological target: T1, 14-3-3η; test: FA direct titration of tracer peptide; details: tracer 50 nM, 10 mM HEPES, 150 mM NaCl, 0.1% Tween 20, 0.1% BSA, pH 7.4; triplicates; read-out: Kd (14-3-3 affinity by FA)
Protocol: To explore the effect of non-linked fragments, 5 commercially available fragments with similarity to the reduced aldehyde form of COOH4, FC50 and FC32; analogues bearing alcohol or methyl groups in place of the aldehyde (Fig. 3c) were assessed. For consistency a modified tracer peptide was used (hDMX361–370^pSer367Gly* i.e. analogous to the screening peptide but bearing FAM-Ahx). […] Stabilization of the peptide/14-3-3η interaction was observed as the anisotropy increased at the highest fragment concentration, consistent with millimolar affinities (Fig. 3c).
Figure S7. Direct titration of peptide for analysis of fragment stabilizing effects ( hDMX361- […]
(1 picture or pasted object on this page, not shown here)
Peptides were cleaved and side-chain deprotected using ‘Reagent K’ […]
Direct titration assay: All assays were performed in 384 well plates (each experiment was run in triplicates) and data were collected by Perkin Elmer EnVision 2013 plate reader with excitation at 480 nm (30 nm bandwidth), polarised dichroic mirror at 505 nm and emission at 535 nm (40 nm bandwidth, S and P polarised). […] A ½ fold dilution series was performed in the titration, with plates read after 30 min, 4 h and 20-24 h. […]
Collected data were processed in Microsoft Excel using the equations bellow. Total intensity I and anisotropy r were calculated using Equations 1 and 2 for each well. […]

Compound	IC50 (14-3-3η [1])	Anisotropy of individually screened hydrazones relative to controls (hit call) (14-3-3η [2])	Kd (14-3-3η [3])
CC[C@H](C)[C@H](NC(=O)[C@@H](NC(=O)[C@H](CCCNC(=N)N)NC(=O)[C@H](CCCNC(=N)N)NC(=O)[C@H](CS)NC(=O)[C@H](CC(=O)O)NC(C)=O)[C@@H](C)O)C(=O)N[C@@H](COP(=O)(O)O)C(=O)N[C@@H](C)C(=O)N1CCC[C@H]1C(=O)NCC(=O)N/N=C/c1scc(Br)c1Br [hDMX361–369^pSer367Gly-hydrazone-SIG17] (HELM PEPTIDE1{[ac].D.C.R.R.T.I.[O=C([C@H](COP(=O)(O)O)N[*:1])[*:2]].A.P.G.[Brc1csc(/C=N/N[*:1])c1Br]}$$$$V2.0)	13.7 ± 0.5 µM	hits	–
CC[C@H](C)[C@H](NC(=O)[C@@H](NC(=O)[C@H](CCCNC(=N)N)NC(=O)[C@H](CCCNC(=N)N)NC(=O)[C@H](CS)NC(=O)[C@H](CC(=O)O)NC(=O)CCCCCNC(=O)c1ccc2c(c1)C(=O)OC21c2ccc(O)cc2Oc2cc(O)ccc21)[C@@H](C)O)C(=O)N[C@@H](COP(=O)(O)O)C(=O)N[C@@H](C)C(=O)N1CCC[C@H]1C(=O)N[C@H](C(=O)NCC(N)=O)C(C)C [hDMX361–370^pSer367Gly*] ({5FAM-Ahx}-DCRRTI[pS]APVG-NH2)	–	–	172 ± 9.3 nM
